Experimental data reported in patent publication US9172221B2, “Converter building” (ABB Technology AG, priority 2011, dated 2015).

What was measured:
[1] = in vivo
[2] = toxicity / lethal concentration LC50

Row | SMILES | toxicity (in words) [1] | LC50 ([2]; in vivo) | risk for human toxicity ([2]; concluded from available results of mammalian HFC (hydrofluorocarbon) tests)
1 | O=C(C(F)(F)C(F)(F)F)C(F)(C(F)(F)F)C(F)(F)F [C6-ketone, 1,1,1,2,4,4,5,5,5-Nonafluoro-2-(trifluoromethyl)pentan-3-one] | non-toxic | about 100,000 ppm | 
2 | FC(F)(F)COC(F)(F)F [2,2,2-trifluoroethyl-trifluoromethyl ether] |  |  | low risk for human toxicity
3 | O=C(C(F)(F)F)C(F)(C(F)(F)F)C(F)(F)F [C5-ketone, 1,1,1,3,4,4,4-heptafluoro-3-(trifluoromethyl)butan-2-one] | practically non-toxic |  | 
